Assay results as given in patent US9717717B1, “Methods of treating cancer through the inhibition of USP7 and immune system modulation” (Progenra, Inc., priority 2015, dated 2017).

How the values were obtained:
[1] = pooled analysis of 14 phase I-III studies, various doses; cited from earlier work
USP7core WT = target: T1, USP7core WT (Homo sapiens, UniProt Q93009); test: LC-MS detection of covalent adduct with purified USP7core WT; type: binding; settings: 5 μM USP7core WT, 100 μM compound, room temperature, 4 hrs
T1 construct: 5 μM purified USP7core WT or active site cysteine mutant C223A were incubated with 100 μM Compound 5
Procedure: (§1) FIG. 4 provides data showing an example of the covalent irreversible nature of disclosed USP7 inhibitors. 5 μM purified USP7core WT or active site cysteine mutant C223A were incubated with 100 μM Compound 5 or DMSO at room temperature for 4 hrs, and then the protein/compound reaction products were mixed with equal volume of 0.1% Trifluoroacetic acid (TFA) before LC-MS injection. The samples were analyzed by reverse-phase liquid chromatography coupled to UV and MS detection (Agilent, 6220 Accurate-Mass Time-of-Flight (TOF) LC/MS). […] FIG. 4 provides data showing an example of the covalent irreversible nature of disclosed USP7 inhibitors. 5 μM purified USP7core WT or active site cysteine mutant C223A were incubated with 100 μM Compound 5 or DMSO at room temperature for 4 hrs, and then the protein/compound reaction products were mixed with equal volume of 0.1% Trifluoroacetic acid (TFA) before LC-MS injection. The samples were analyzed by reverse-phase liquid chromatography coupled to UV and MS detection (Agilent, 6220 Accurate-Mass Time-of-Flight (TOF) LC/MS).

USP7 core C223A = USP7 core C223A (Homo sapiens, UniProt Q93009, C223A); test: LC-MS detection of covalent adduct with USP7 core active site cysteine mutant C223A; type: binding; settings: 5 μM C223A, 100 μM compound, room temperature, 4 hrs
Procedure: as §1

USP7 = target: T2, USP7 (Homo sapiens, UniProt Q93009); test: DUB activity of USP7 immunoprecipitated from treated Jurkat cells (Ub-EKL assay); type: cell-based; settings: for USP7 catalytic activity returned after washout: Jurkat cells exposed for 2 hours
T2 construct: endogenous in cells; host or cells: Jurkat
Procedure: FIG. 5A-FIG. 5C graphically illustrate that the disclosed USP7 inhibitors of the invention are irreversible inhibitors. Jurkat cells were treated with 10 μM USP7i for indicated time period (FIG. 5A) or pulse treated for 2 h with 10 μM compound 5 (FIG. 5B), washed and incubated for the indicated time period followed by DUB activity measurement of immunoprecipitated USP7 as well as total cell lysate (FIG. 5C) using Ub-EKL assay as described previously (U.S. Pat. No. 8,680,139). A portion of the immunoprecipitated USP7 is separated on 10% SDS-PAGE and immunoblotted with anti-USP7 antibody to detect the level of USP7 protein (shown at the top of graphs in FIG. 5A and FIG. 5B). […] Jurkat cells were exposed to Compound 5 for 2 hours and the compounds were washed away followed by incubation for various time points. Cells were harvested, lysed and their USP7 immunoprecipitated and washed with buffer. […] Jurkat cells were incubated with an exemplary compound of the present invention (e.g., compound 5), washed, and incubated for an additional 0-96 h. USP7 was immunoprecipitated from lysates and USP7 activity measured. […] Total cell deubiquitinase activity can be performed to determine selectivity of these compounds (FIG. 5C). These experiments delineate a simple, powerful biomarker for determining the dose-efficacy relationship in the pre-clinical/clinical evaluation of irreversible USP7 inhibitors. Inhibitors were also tested in cells for effects on various PD markers, including two major USP7 substrates, HDM2 and UHRF1.

HDM2 = test: Immunoblot of HDM2 level in treated Jurkat cells; type: cell-based; settings: immunoblot (FIG. 6)
Procedure: (§2) FIG. 6 graphically illustrates a decrease in USP7 oncogenic substrates HDM2 and UHRF1 levels in Jurkat cells treated with the USP7i compound 5. 20 μg total cell lysates from each samples were separated on 10% SDS-PAGE and immunoblotted with antibodies against HDM2, UHRF1 and Actin (loading control).
(§3) Jurkat cells were incubated with an exemplary compound of the present invention (e.g., compound 5), washed, and incubated for an additional 0-96 h. USP7 was immunoprecipitated from lysates and USP7 activity measured. […] Total cell deubiquitinase activity can be performed to determine selectivity of these compounds (FIG. 5C). These experiments delineate a simple, powerful biomarker for determining the dose-efficacy relationship in the pre-clinical/clinical evaluation of irreversible USP7 inhibitors. Inhibitors were also tested in cells for effects on various PD markers, including two major USP7 substrates, HDM2 and UHRF1.

UHRF1 = test: Immunoblot of UHRF1 level in treated Jurkat cells; type: cell-based; settings: immunoblot (FIG. 6)
Procedure: as §2, §3

Murine Tregs = test: 3-day Treg suppression assay (CFSE-labeled T effector cell proliferation, FACS); type: cell-based; settings: Tregs pre-treated with 10 μM for 2 h, washed (FIG. 7)
Procedure: FIG. 7 graphically illustrates the inhibition of Treg functions after treatment with USP7 inhibitor compound 5. Murine Tregs were pre-treated with compound 5 for 2 hrs, washed and incubated with carboxyfluorescein succinimidyl ester (CFSE) labeled T effector cells at varying concentrations for 3 days. T effector cell proliferation was monitored using FACS analysis. Percentage proliferation is plotted using Graphpad prism.
Initial in vitro determination of the effect of compounds on the Treg-Teff system was performed by co-culturing drug pretreated Treg cell with Teff cells for three days and determining the Teff proliferation by flow cytometry. The compounds that were active in enhancing Teff growth were then examined for their effect on biomarkers. The most interesting compounds were tested for their effect on tumor growth in immune competent mice inoculated with lung cancer cells subcutaneously.
3-day Treg suppression assay in which isolated Tregs were treated with DMSO or experimental compound, washed and added to wells in which T cell proliferation was induced by CD3 mAb plus APC; % proliferation of CFSE-labeled conventional (Tcon) cells is shown in blue for each Treg:Tcon ratio. […] Flow cytometry confirmed marked or moderate down-regulation of Foxp3 expression by Treg cells exposed to potential inhibitor for 2 hrs. […]

TC1 lung tumor = test: TC1 flank tumor model in immunocompetent mice; type: in vivo, B6 mice
Procedure: Inhibition was statistically significant at the p<0.05 level (**).
USP7 targeting inhibits flank tumor growth via a Treg-dependent mechanism in immunocompetent mice (FIGS. 8A and 8B). Eight week-old B6 mice were injected with 5×10^5 TC1 tumor cells, and 1 week later, when tumors had reached ˜100 mm^3, mice were implanted with 14 day Alzet pumps containing vehicle or USP7i at doses 0.6 mg/kg, 1 mg/kg, and 6 mg/kg. Tumor growth was measured twice weekly for 2 weeks, and the study continued for an additional time period without further dosing. At sacrifice, spleens, draining lymph nodes (DLN), and tumors can be assessed by flow cytometry, histology, immunohistology and qPCR. Such studies can be performed in both immunocompetent and immunodeficient mice.

T2 sequence (Q93009 whole entry): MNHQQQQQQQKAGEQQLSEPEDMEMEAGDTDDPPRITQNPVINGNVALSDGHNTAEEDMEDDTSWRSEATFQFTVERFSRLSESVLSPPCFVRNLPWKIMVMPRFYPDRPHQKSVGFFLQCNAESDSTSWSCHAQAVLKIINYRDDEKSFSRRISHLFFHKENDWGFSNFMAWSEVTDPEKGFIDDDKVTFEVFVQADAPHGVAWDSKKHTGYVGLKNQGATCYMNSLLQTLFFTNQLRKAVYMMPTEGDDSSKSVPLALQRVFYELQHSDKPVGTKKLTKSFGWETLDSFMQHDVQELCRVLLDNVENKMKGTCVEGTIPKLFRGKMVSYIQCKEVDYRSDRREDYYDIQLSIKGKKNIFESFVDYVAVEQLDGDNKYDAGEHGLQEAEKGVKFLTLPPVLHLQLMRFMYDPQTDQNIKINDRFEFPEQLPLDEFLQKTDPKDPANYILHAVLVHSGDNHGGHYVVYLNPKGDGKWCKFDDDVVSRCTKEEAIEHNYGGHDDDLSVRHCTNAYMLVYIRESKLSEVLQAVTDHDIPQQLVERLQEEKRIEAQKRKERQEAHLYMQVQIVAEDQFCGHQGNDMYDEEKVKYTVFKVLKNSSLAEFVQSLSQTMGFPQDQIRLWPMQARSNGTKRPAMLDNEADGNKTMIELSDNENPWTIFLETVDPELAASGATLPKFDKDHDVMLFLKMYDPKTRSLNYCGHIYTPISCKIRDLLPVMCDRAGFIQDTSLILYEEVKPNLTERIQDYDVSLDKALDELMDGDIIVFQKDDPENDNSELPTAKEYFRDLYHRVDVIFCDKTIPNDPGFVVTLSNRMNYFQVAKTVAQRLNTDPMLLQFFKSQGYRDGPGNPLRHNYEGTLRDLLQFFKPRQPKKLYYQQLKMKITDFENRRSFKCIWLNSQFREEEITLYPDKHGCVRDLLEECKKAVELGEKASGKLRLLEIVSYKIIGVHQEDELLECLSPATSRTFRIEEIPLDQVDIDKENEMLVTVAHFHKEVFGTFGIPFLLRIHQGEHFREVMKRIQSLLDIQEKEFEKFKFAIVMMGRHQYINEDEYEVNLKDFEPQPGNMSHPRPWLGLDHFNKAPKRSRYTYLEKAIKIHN
USP7 core C223A, sequence (Q93009 214-521 C223A limits assumed): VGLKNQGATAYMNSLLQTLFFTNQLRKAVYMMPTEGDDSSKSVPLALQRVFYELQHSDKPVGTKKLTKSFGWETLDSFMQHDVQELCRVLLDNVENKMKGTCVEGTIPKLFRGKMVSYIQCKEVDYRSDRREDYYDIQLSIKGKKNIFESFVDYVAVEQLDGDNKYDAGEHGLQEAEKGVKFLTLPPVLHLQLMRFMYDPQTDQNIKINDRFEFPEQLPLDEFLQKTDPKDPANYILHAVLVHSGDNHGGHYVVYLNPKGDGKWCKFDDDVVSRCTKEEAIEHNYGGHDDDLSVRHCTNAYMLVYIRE
T1 sequence (Q93009 214-521 limits assumed): as the sequence (Q93009 214-521 C223A limits assumed) above, with A10C counted along it

Compound	patients with immune-related adverse effects [1]	covalent adduct formation with USP7 core (USP7core WT)	covalent adduct formation with USP7 core C223A (USP7 core C223A)	USP7 catalytic activity returned after washout (USP7; washed, after 48 hours)	USP7 catalytic activity returned after washout (USP7; washed, after 72 hours)	USP7 activity after pulse treatment (USP7; Jurkat cells, 10 μM for 2 h, washed, even after 72 h (FIG. 5B))	catalytic activity of isolated USP7 (USP7; Jurkat cells, incubation with inhibitor for 1 h (FIG. 5A))	HDM2 level (HDM2)	UHRF1 level (UHRF1)	Treg suppressive functions (Murine Tregs)	TC1 lung tumor growth (TC1 lung tumor; Day 16, statistically significant p<0.05 (FIG. 8A, 8B))	tumor regression (TC1 lung tumor; TC1 tumors (FIG. 8B))
ipilimumab	64%											
CS(=O)(=O)c1cccc(NC(=O)c2cc([N+](=O)[O-])c(Sc3c(Cl)cncc3Cl)s2)c1 [Compound 5, 5-[(3,5-dichloropyridin-4-yl)sulfanyl]-N-[3-(methylsulfonyl)phenyl]-4-nitrothiophene-2-carboxamide]		formed a covalent adduct	failed to form an adduct	about 55%	68%	prolonged inhibition of USP7 activity	significant inhibition of catalytic activity	decrease	decrease	marked impairment of Treg suppressive functions	inhibition of TC1 lung tumor growth	complete tumor regression in several mice
